One experiment deals with ECHCG (Barnyardgrass). Kind of experiment: Postemergence herbicidal evaluation. Type of experiment: in vivo, Echinochloa crus-galli. Particulars: postemergence. Put shortly: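 Two-week-old seedlings sprayed with compound in 50/50 acetone/water plus 0.5% TWEEN 20, at about 0.0156 to 0.500 kg/ha, nozzle at 40 psi. Kept in greenhouse; rated visually 4-5 weeks after treatment on a 0-9 scale versus control, repeat tests averaged.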

The next experiment has as its system CYPSE (Flatsedge). Kind of experiment: Preemergence weed control under flooded paddy conditions. The format is in vivo, Cyperus serotinus. The conditions noted are these: rated 3-4 weeks after treatment. The method in brief:
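First, seeds or propagules go into the top 0.5 cm of silt loam; next, water is held 1.5 to 3 cm over the soil; then compound (50/50 acetone/water) is pipetted into it at about 0.0313 to 0.500 kg/ha; finally plants are rated visually 0-9 after three to four weeks.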

For experiment [1], the system named is CHEAL (Lambsquarters, Common). The experiment can be described thus: Preemergence herbicidal evaluation. The format is in vivo, Chenopodium album. The conditions noted are these: rated 4-5 weeks after treatment. The method in brief:
(§1)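 Seeds were mixed with potting soil and planted on about one inch of soil, then sprayed with test compound in aqueous acetone at about 0.0156 to 0.500 kg per hectare. Plants grew under standard greenhouse care and were visually rated 0-9 against untreated controls 4-5 weeks post-treatment.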

Experiment [2] concerns ECHORC (Watergrass (Calif.)). The experiment can be described thus: Preemergence weed control under flooded paddy conditions. Type of experiment: in vivo, Echinochloa oryzoides. Particulars: rated 3-4 weeks after treatment. Put shortly: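 Silt loam, seeds in top 0.5 cm; flood held 1.5-3 cm; test cpd as acetone/water 50/50 into flood water, ~0.0313-0.500 kg/ha a.i.; greenhouse 3-4 wk; visual 0-9 score vs control.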

Another experiment deals with ORYSAT (Rice, Tebonnet). The experiment can be described thus: Preemergence herbicidal evaluation. Type of experiment: in vivo, Oryza sativa, (L.) Tebonnet. Particulars: rated 4-5 weeks after treatment. Put shortly: as §1

For the compound `C=CCN1C(=O)C(CC(=O)NO)SC1=Nc1cc(-n2c(=O)cc(C(F)(F)F)n(C)c2=O)c(F)cc1Cl` (centres unmarked) [Compound 161, 3-Allyl-2-{{2-chloro-5-[3,6-dihydro-3-methyl-2,6-dioxo-4-(trifluoromethyl)-1(2H)-pyrimidinyl]-4-fluorophenyl}imino}-4-oxo-5-thiazolidineacetohydroxamic acid], the “herbicidal rating ECHCG” value is given as 0.0 with ECHCG (Barnyardgrass) (rate 0.0156 kg/ha), 0.0 in the experiment with ECHCG (Barnyardgrass) (rate 0.0313 kg/ha), 4.0 with ECHCG (Barnyardgrass) (rate 0.0625 kg/ha) and 4.0 in the experiment on ECHCG (Barnyardgrass) (rate 0.1250 kg/ha). In addition, the “herbicidal effect rating, CYPSE” value is recorded as 0.0 in the experiment on CYPSE (Flatsedge) (0.0313 kg/ha), 0.0 with CYPSE (Flatsedge) (0.0625 kg/ha), 0.0 in the experiment on CYPSE (Flatsedge) (0.1250 kg/ha) and 3.0 with CYPSE (Flatsedge) (0.2500 kg/ha). The “Preemergence herbicidal rating CHEAL” value in experiment [1] (0.0156 kg/ha) came out at 6.0; in experiment [1] (0.0313 kg/ha), 7.0; in experiment [1] (0.0625 kg/ha) it was 9.0; in experiment [1] (0.1250 kg/ha) it was 9.0; in experiment [1] (0.2500 kg/ha), 9.0; in experiment [1] (0.5000 kg/ha), 9.0. The “herbicidal effect rating, ECHORC” value in experiment [2] (0.0313 kg/ha) turned out to be 0.0; in experiment [2] (0.0625 kg/ha), 0.0; in experiment [2] (0.1250 kg/ha), 2.0; in experiment [2] (0.2500 kg/ha), 4.0. Further, the “Preemergence herbicidal rating ORYSAT” value with ORYSAT (Rice, Tebonnet) (0.0156 kg/ha) was found to be 0.0; in the experiment with ORYSAT (Rice, Tebonnet) (0.0313 kg/ha), 1.0; with ORYSAT (Rice, Tebonnet) (0.0625 kg/ha), 7.0; in the experiment with ORYSAT (Rice, Tebonnet) (0.1250 kg/ha) it was 7.0; with ORYSAT (Rice, Tebonnet) (0.2500 kg/ha), 9.0; in the experiment with ORYSAT (Rice, Tebonnet) (0.5000 kg/ha), 9.0.

Take `CCOC(=O)CN1C(=O)C(SC)SC1=Nc1cc(-n2c(=O)cc(C(F)(F)F)n(C)c2=O)c(F)cc1Cl` (centres unmarked) [Compound 125, Ethyl 2-{{2-chloro-5-[3,6-dihydro-3-methyl-2,6-dioxo-4-(trifluoromethyl)-1(2H)-pyrimidinyl]-4-fluorophenyl}imino}-5-(methylthio)-4-oxo-3-thiazolidineacetate]: the results for the “herbicidal rating ECHCG” value in the experiment with ECHCG (Barnyardgrass) (rate 0.0156 kg/ha), with ECHCG (Barnyardgrass) (rate 0.0313 kg/ha) and in the experiment with ECHCG (Barnyardgrass) (rate 0.0625 kg/ha) were 1.0, 2.0 and 3.0, respectively. Further, the “herbicidal effect rating, CYPSE” value in the experiment on CYPSE (Flatsedge) (0.0313 kg/ha) turned out to be 2.0; with CYPSE (Flatsedge) (0.0625 kg/ha), 4.0; with CYPSE (Flatsedge) (0.1250 kg/ha) it was 9.0; in the experiment with CYPSE (Flatsedge) (0.2500 kg/ha), 9.0. The “Preemergence herbicidal rating CHEAL” value in experiment [1] (rate 0.0156 kg/ha), in experiment [1] (rate 0.0313 kg/ha), in experiment [1] (rate 0.0625 kg/ha), in experiment [1] (rate 0.1250 kg/ha), in experiment [1] (rate 0.2500 kg/ha) and in experiment [1] (rate 0.5000 kg/ha) was 9.0 throughout. In addition, the “herbicidal effect rating, ECHORC” value came to 2.0 in experiment [2] (0.0313 kg/ha), 4.0 in experiment [2] (0.0625 kg/ha), 7.0 in experiment [2] (0.1250 kg/ha) and 7.0 in experiment [2] (0.2500 kg/ha). Besides, the “Preemergence herbicidal rating ORYSAT” value stood at 0.0 in the experiment on ORYSAT (Rice, Tebonnet) (rate 0.0156 kg/ha); 0.0 in the experiment on ORYSAT (Rice, Tebonnet) (rate 0.0313 kg/ha); 1.0 in the experiment on ORYSAT (Rice, Tebonnet) (rate 0.0625 kg/ha); 1.0 in the experiment on ORYSAT (Rice, Tebonnet) (rate 0.1250 kg/ha); 4.0 in the experiment on ORYSAT (Rice, Tebonnet) (rate 0.2500 kg/ha); 4.0 in the experiment with ORYSAT (Rice, Tebonnet) (rate 0.5000 kg/ha).

Source of the values: US20020137929A1, “1 - (3-heterocyclylphenyl) isothiourea, -isourea, -guanidine and -amidine herbicidal agents” (Intellectual Property Department, BASF Aktiengesellschaft, priority 1998, published 2002).
